Test results published in patent publication US20240307409A1, “ARGININE METHYLTRANSFERASE INHIBITOR AND USE THEREOF” (Cytosinlab Therapeutics Co., Ltd., priority 2021, published 2024).

How the values were obtained:
PRMT8 = PRMT8 (Homo sapiens, UniProt Q9NR22); assay: PRMT panel selectivity test, PRMT8; assay type: biochemical
Protocol: [The procedure below names another target; the source says it served here with some conditions changed.] This experiment was assayed in a buffer prepared on the same day consisting of 10 mMTirs-HCl (pH=8.0), […] and 1 mM DTT. The compounds were prepared to the highest inhibitor concentration ultimately required in the 100× reaction with 100% DMSO and then transferred to one well of a 384-well Echo plate (Echo-eligible 384-well polypropylene microplates 2.0, transparent, flat-bottomed) and sequentially diluted in the next well with a 3-fold dilution of 100% DMSO, and so on, with a total of 10 concentrations based on Precision. 100% DMSO was added to two empty wells as control well without compound and control well without enzyme in the same 384-well Echo plate. 100 nL of compound was transferred from each well of the 384-well Echo plate to a 384-well assay plate (OptiPlate (384-well, white)) via the Echo 550 liquid processor. For wells with compounds and control well without compound, a mixture containing PRMT1 enzyme (5 uL) was added to the 384-well assay plate. For control well without enzyme, a mixture containing test buffer (5 uL) was added instead. The compounds were allowed to incubate with PRMT3 for 15 minutes at room temperature, and then a mixture containing cold SAM and peptide (5 uL) was added to start the reaction (final volume=10 uL). The final concentrations of the components were as follows: 0.1 nM for PRMT3, 15 uM for SAM, 0.05 uM for peptide, and 1% DMSO. After 60 min of incubation at room temperature, the reaction was terminated by the addition of donor and acceptor magnetic beads (15 uL) with a final concentration of 10 ug/mL diluted with AlphaLISA Epigenetics Buffer. The 384-well assay plate was incubated at room temperature for 60 min and the relative fluorescence units (RFU) were nextly determined using a multi-mode plate reader in Alpha mode (Ex680/Em615).
Curve fitting: the raw data were copied from Reader and the inhibition values were calculated in Excel by equation (1). […]

Toledo cells = assay: Toledo cell proliferation inhibition assay; assay type: cell-based; conditions: Homo sapiens, Toledo, 144 h; six-day assay, CellTiter-Glo
Method in brief: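 Toledo cells seeded at 2000 cells/well in RPMI 1640 + 10% FBS and incubated with compound for six days at 37° C, 5% CO2. Viability was then read by CellTiter-Glo luminescence after 30 min orbital mixing.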

MMA in RKO cells = assay: RKO In Cell Western assay (MMA primary antibody); assay type: cell-based; conditions: Homo sapiens, 72 hours, read-out: RKO ICW_EC30
Method in brief: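 After 72 h compound exposure at 37 °C, RKO cells (2,000/well) were fixed, permeabilized and probed with MMA primary antibody plus HRP secondary, TMB read at OD450. Signal normalized to Janus green OD595; activation % derived from OD450/OD595 relative to DMSO and 10 μM positive controls, 8-point threefold series from 5 μM.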

PRMT8, sequence (Q9NR22 whole entry): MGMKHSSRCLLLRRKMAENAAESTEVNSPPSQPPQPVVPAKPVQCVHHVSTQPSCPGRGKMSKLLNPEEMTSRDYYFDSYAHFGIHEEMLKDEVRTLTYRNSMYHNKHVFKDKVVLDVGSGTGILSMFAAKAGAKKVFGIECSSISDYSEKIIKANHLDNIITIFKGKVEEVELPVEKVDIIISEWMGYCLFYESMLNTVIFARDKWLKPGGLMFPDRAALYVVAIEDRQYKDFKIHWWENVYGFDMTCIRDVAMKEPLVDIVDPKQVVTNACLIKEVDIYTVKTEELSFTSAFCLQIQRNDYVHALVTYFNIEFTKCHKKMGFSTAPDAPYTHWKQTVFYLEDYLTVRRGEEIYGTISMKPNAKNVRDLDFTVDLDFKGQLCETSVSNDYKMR

| IC50 (PRMT8) | Compound | IC50 (Toledo cells) | EC30 (MMA in RKO cells) |
| --- | --- | --- | --- |
| < 50 nM | CNCCN(C)Cc1ccccc1C1CCN(c2ccccc2)CC1 [P023] | < 1000 nM | < 0.25 µM |
| < 50 nM | CNCCN(C)Cc1ncccc1N1CCc2ccccc2CC1 [P118] | < 1000 nM | < 0.25 µM |
| < 50 nM | CCOCC1(COCC)CCC(c2cccnc2CN(C)CCNC)CC1 [P207] | < 1000 nM | < 0.25 µM |
